Article PMC4792926, “G9a-mediated methylation of ERα links the PHF20/MOF histone acetyltransferase complex to hormonal gene expression” (Nature Communications, 2016)
Ends that are not written are not given here.

Tests used:
PHF20 Tudor [1] = assay: Peptide pull-down with GST-PHF20 Tudor; format: binding, human; settings: 1 μg biotinylated peptide, 1 μg GST-PHF20 Tudor, 50 mM Tris-HCl pH 7.5, 300 mM NaCl, 0.1% NP-40, overnight
Procedure: (§1) The pGEX constructs encoding human G9a, ERα and ERα fragments including AF1 (aa 1–190), DBD (aa 175–250), hinge (aa 251–310), DBD+hinge (aa 175–310), LBD (aa 305–596) and the second Tudor domain of PHF20 (aa 58–148) were expressed in E. coli Rosetta (DE3) pLysS cells. After induction with IPTG (0.5 mM) for 16–18 h at 18 °C, cells were collected by centrifugation at 5,000g, lysed by sonication and purified using Glutathione Sepharose 4B beads (GE Healthcare). For the NMR titration assays, PHF20 Tudor was expressed in the ^15NH4Cl-supplemented (Sigma) minimal media, and the GST tag was cleaved with PreScission protease, and the cleaved protein was concentrated using Millipore concentrators (Millipore).
(§2) For peptide pulldown assays, 1 μg of biotinylated histone and ERα peptides with or without methylation were incubated with 1 μg GST-PHF20 Tudor in binding buffer (50 mM Tris-HCl, pH 7.5, 300 mM NaCl, 0.1% NP-40 and 1 mM PMSF) for overnight. Streptavidin beads (GE Healthcare) were added into the mixture and incubated for 1 h with rotation. The beads were then washed three times, and analysed by SDS−PAGE and western blotting. For the protein domain array, the CADOR 5.0 protein domain array was probed with biotinylated ER peptides as described previously. The protein domains spotted on the CADOR 5.0 array are listed in the Supplementary Fig. 5.

[2] = tested on: PHF20 Tudor W97A and Y103A mutants; assay: Peptide pull-down with PHF20 Tudor mutants; format: binding, human; settings: W97A and Y103A mutants of PHF20 Tudor
Procedure: as §1, §2

PHF20 Tudor [3] = assay: 1H,15N HSQC NMR titration of PHF20 Tudor; format: binding, human
Procedure: as §1
The ^1H,^15N HSQC spectra of 0.2 mM uniformly ^15N-labelled PHF20 Tudor (in 25 mM Tris-HCl, pH 7.5 buffer, 150 mM NaCl, 5 mM dithiothreitol and ∼8% D2O) were collected at 298 K on a Varian INOVA 600 MHz spectrometer. Binding was monitored by titrating unmodified ERα and ERαK235me2 peptides (aa 228–239) against the PHF20 Tudor domain. NMR data were processed and analysed with NMRPipe and NMRDraw as previously described. NMR assignments for PHF20 Tudor were taken from the Biological Magnetic Resonance Data Bank (BMRB 17673)[31].

S. pombe SPF30 Tudor = assay: Chromatin-associated domain array (CADOR 5.0), SPF30 Tudor; format: binding; settings: biotinylated peptide on CADOR 5.0; K235 methylation-dependent
Procedure: as §2, with “Fig. 5. […]” for “Fig. 5.”
(§3) Recombinat Proteins Construct Sources a - Cheryl Arrowsmith d - Jiemin W ong g - Albert Jeltsch j - Judd Rice n - Alla Grishok b - Subhashini Sadasivem e - Or Gozani h - Yi Zhang k - Marc Timmers o - Olli Silvennoinen c - Jocelyn Coté f - Thomas Jenuwein i - Adrian Bird l - Michelle Barton p - Logan Donaldson […]
(§4) Supplementary Figure 5. Domain layout of the Chromatin-Associated Domain Array […]
(§5) (1 picture or pasted object on this page, not shown here)

53BP1 Tudor = assay: Chromatin-associated domain array (CADOR 5.0), 53BP1 Tudor; format: binding; settings: biotinylated peptide on CADOR 5.0; K235 methylation-dependent
Procedure: as §2, with “Fig. 5. […]” for “Fig. 5.”
as §3, §4, §5

[4] = tested on: PHF20/PHF20L Tudor domains; assay: Chromatin-associated domain array (CADOR 5.0), PHF20/PHF20L Tudors; format: binding; settings: biotinylated peptide on CADOR 5.0; K235 methylation-dependent
Procedure: as §2, with “Fig. 5. […]” for “Fig. 5.”
as §3, §4, §5

ERαK235me2 = assay: Immunofluorescence of ERαK235me2 in MCF-7 cells; format: cell-based, human; settings: 10 nM 17β-estradiol, 45 min; E2-deprived MCF-7
Procedure: MCF-7 cells were E2-depleted for 3 days and treated with 10 nM 17β-estradiol or ethanol for 45 min. Cells were then fixed in 4% formaldehyde, washed and permeabilized in 0.5% Triton X-100 on ice for 10 min. Cells were then blocked in 3% BSA, incubated with primary antibodies in 3% BSA for 2 h, washed, and probed with fluorescein-conjugated secondary antibodies in 3% BSA for 1 h. Cells on the slide were then washed, covered with mounting medium (with DAPI) and observed using an Olympus confocal microscope FluoView FV1000.
(d) ERαK235, but not K303, is required for the coactivator function of G9a in an estrogen response element- (ERE) driven luciferase assay. U2OS cells were cotransfected with G9a, NCOA2 and ERα (WT, K235R, or K303R) together with an ERE-Firefly luciferase and a Renilla luciferase, and the luciferase activity was determined 24 hrs after E2 treatment.
(e) G9a has a catalytic activity-dependent and independent coactivator activity of ERα. U2OS cells were cotransfected with ERα, NCOA2 and […] (WT or H1113K) together with an ERE-Firefly luciferase and a Renilla luciferase, and the luciferase activity was determined as described in the Method section.
(f) Both the E2-dependent and E2-independent ERα coactivator functions of G9a require the ERαK235 residue. […]

MCF-7 cells = assay: RNA-seq in MCF-7 cells ±E2; format: cell-based, human; settings: 10 nM E2, 3 h
Procedure: (§6) Human MCF-7, T-47D, U2OS and HEK293T cells (ATCC) were cultured in DMEM (Cellgro) supplemented with 10% fetal bovine serum (FBS, Sigma). For G9a inhibitor treatment, BIX-01294 (Sigma) was added to the medium, at the indicated concentrations, 24 h before the cells were collected. For shRNA knockdown, 293T cells were co-transfected with pMD2.G and pPAX2 (Addgene) together with pLKO-shRNA constructs or a non-targeting pLKO-shRNA (pLKO-shCtrl). Viral supernatants were harvested after 48 h. For infections, MCF-7 or T-47D cells were incubated with viral supernatants in the presence of 8 μg ml^−1 polybrene. After 48 h, puromycin (2 μg ml^−1) was added to the DMEM. Cells were grown, with selection for 5–7 days to select for stable knockdown cells before oestrogen treatment. […]
RNA-seq samples were sequenced using the Illumina Hiseq 2000, and raw reads were mapped to the human reference genome (hg19) and transcriptome using the RNA-seq unified mapper. Read counts for each transcript were calculated using HTseq v0.6.1 using default parameters. […] For the PHF20 knockdown data set, the common dispersion and tag wise dispersion were calculated using the edgeR ‘estimateCommonDisp' and ‘estimateTagwise-Disp' functions, respectively. […]

[5] = tested on: ERα on GREB1 and PR promoters; assay: ERα ChIP-qPCR in MCF-7 cells; format: cell-based, human; settings: E2, 15 and 45 min
Procedure: (§7) Human MCF-7, T-47D, U2OS and HEK293T cells (ATCC) were cultured in DMEM (Cellgro) supplemented with 10% fetal bovine serum (FBS, Sigma). For G9a inhibitor treatment, BIX-01294 (Sigma) was added to the medium, at the indicated concentrations, 24 h before the cells were collected. For shRNA knockdown, 293T cells were co-transfected with pMD2.G and pPAX2 (Addgene) together with pLKO-shRNA constructs or a non-targeting pLKO-shRNA (pLKO-shCtrl). Viral supernatants were harvested after 48 h. For infections, MCF-7 or T-47D cells were incubated with viral supernatants in the presence of 8 μg ml^−1 polybrene. After 48 h, puromycin (2 μg ml^−1) was added to the DMEM. Cells were grown, with selection for 5–7 days to select for stable knockdown cells before oestrogen treatment. For oestrogen treatment, cells were starved in phenol red-free DMEM supplemented with 10% charcoal-stripped FBS (Sigma) for 3–4 days, and 10 nM 17β-estradiol (Sigma) or ethanol (vehicle) were added to the medium (3 or 6 h for gene expression studies, and 15 and 45 min for ChIP experiments) before the cells were collected.
ChIP analysis was performed essentially as described previously. Briefly, cells were crosslinked with 1% formaldehyde for 10 min at room temperature, and the reaction was stopped with 125 mM glycine. Nuclei were isolated by resuspending the cells in swelling buffer containing 5 mM PIPES, pH 8.0, 85 mM KCl, 1% NP-40 and complete protease inhibitors for 20 min at 4 °C. The isolated nuclei were resuspended in nuclei lysis buffer (50 mM Tris, pH 8.0, 10 mM EDTA, 1% SDS) and sonicated using a Bioruptor Sonicator (Diagenode). Samples were immunoprecipitated with 2–4 μg of the appropriate antibodies overnight at 4 °C. Immunoprecipitates were washed twice with dialysis buffer (50 mM Tris pH 8.0, 2 mM EDTA, 0.2% Sarkosyl) and four times with IP wash buffer (100 mM Tris, pH 8.0, 500 mM LiCl, 1% NP-40 and 1% deoxycholic acid sodium salt). After reverse crosslinking was performed, the DNA was eluted and purified using a PCR purification kit (Qiagene). […]

[6] = tested on: H4K16ac on ERα target gene promoters; assay: Histone H4K16ac ChIP-qPCR in MCF-7 cells; format: cell-based, human
Procedure: as §7
ChIP analysis was performed essentially as described previously. Briefly, cells were crosslinked with 1% formaldehyde for 10 min at room temperature, and the reaction was stopped with 125 mM glycine. Nuclei were isolated by resuspending the cells in swelling buffer containing 5 mM PIPES, pH 8.0, 85 mM KCl, 1% NP-40 and complete protease inhibitors for 20 min at 4 °C. The isolated nuclei were resuspended in nuclei lysis buffer (50 mM Tris, pH 8.0, 10 mM EDTA, 1% SDS) and sonicated using a Bioruptor Sonicator (Diagenode). Samples were immunoprecipitated with 2–4 μg of the appropriate antibodies overnight at 4 °C. Immunoprecipitates were washed twice with dialysis buffer (50 mM Tris pH 8.0, 2 mM EDTA, 0.2% Sarkosyl) and four times with IP wash buffer (100 mM Tris, pH 8.0, 500 mM LiCl, 1% NP-40 and 1% deoxycholic acid sodium salt). After reverse crosslinking was performed, the DNA was eluted and purified using a PCR purification kit (Qiagene). The primer sequences used for ChIP analyses are listed in Supplementary Table 4.

[7] = tested on: ERα target genes (GREB1, PR, TFF1); assay: qPCR of E2-induced ERα target gene expression in MCF-7 cells; format: cell-based, human; settings: for fold induction of GREB1, PR and TFF1: control (shCtrl) MCF-7, relative to untreated cells
Procedure: as §7
(§8) Reverse transcription and real-time PCR were performed as described previously. mRNA was prepared using the RNeasy Plus kit (Qiagen) and reverse transcribed using the First Strand Synthesis kit (Invitrogen). Quantitative real-time RT–PCR (qPCR) was performed on an ABI 7500-FAST Sequence Detection System using the Power SYBR Green PCR Master Mix (Applied Biosystems). Gene expression was calculated following normalization to GAPDH levels using the comparative Ct (cycle threshold) method and is shown as ‘Fold' relative to the expression of each gene in the control cells without E2 treatment that was arbitrarily set as ‘1'. The primer sequences used for RT–PCR are listed in Supplementary Table 5.

[8] = tested on: ERα target genes (GREB1, PR, TFF1); assay: qPCR of E2-induced ERα target gene expression in T-47D cells; format: cell-based, human; settings: 10 nM E2, 3 or 6 h; G9a-depleted T-47D
Procedure: as §6
as §8, with “The primer sequences used for RT–PCR are listed in Supplementary Table 5.” left out

“ERαK235me2 peptide: ERα peptide dimethylated at K235; aa 228–239 in NMR titrations, biotinylated in pull-downs (TIDKNRRK(Me2)SCQA; also: biotinylated in pull-downs, end not given here; UniProt P03372 228-239, looked up, fragment)” was tested, and the “interaction with PHF20 Tudor (pull-down)” value (PHF20 Tudor [1]) was “strong interaction”, the “binding to PHF20 Tudor W97/Y103 mutants (pull-down)” value [2] was “abolished the binding” and the “chemical shift changes of PHF20 Tudor” value (PHF20 Tudor [3]; 0.2 mM 15N-labelled PHF20 Tudor, 25 mM Tris-HCl pH 7.5, 150 mM NaCl, 298 K, 600 MHz) was “large chemical shift changes”. The “backbone amide resonances A95, W97, Y103, A105, V118, F120, D122-Q126 of PHF20 Tudor” value (PHF20 Tudor [3]; HSQC titration, 0.2 mM PHF20 Tudor, pH 7.5, 298 K) was “significant shifting and broadening”.
In the case of “ERα peptide (aa 227–244) bearing dimethylated K235: ERα peptide (aa 227–244) bearing dimethylated K235, biotinylated, used to probe the CADOR array (CTIDKNRRK(Me2)SCQACRLRK; cysteine pairing not given here; also: biotin, end not given here)”, the “recognition by S. pombe SPF30 Tudor” value (S. pombe SPF30 Tudor) is reported as “recognized the ERα peptide in a K235 methylation-dependent manner”, the “recognition by 53BP1 Tudor” value (53BP1 Tudor) is reported as “recognized the ERα peptide in a K235 methylation-dependent manner” and the “recognition by PHF20/PHF20L Tudor” value [4] is reported as “recognized the ERα peptide in a K235 methylation-dependent manner”.
With C[C@]12CC[C@@H]3c4ccc(O)cc4CC[C@H]3[C@@H]1CC[C@@H]2O [E2, 17β-estradiol] the ERαK235me2 level (ERαK235me2) was “increased upon E2 stimulation”, the “number of E2-activated genes” value (MCF-7 cells) was 774 genes and the “levels of ERα on GREB1 and PR promoters” value ([5]; G9a-depleted MCF-7) was “markedly reduced”. For the same molecule, the “ERα occupancy on the promoters of GREB1 and PR” value ([5]; PHF20 knockdown MCF-7) was “no or minimal ERα occupancy was detected”, the “ERα on the promoters of GREB1 and PR” value ([5]; control MCF-7) was “E2-dependent increase of ERα on the promoters of GREB1 and PR” and the “E2-dependent H4K16ac and ERα on GREB1 and PR promoters (H4K16ac)” value ([6]; E2, 15 and 45 min, G9a-depleted MCF-7) was “markedly reduced”. The “E2-dependent increase of H4K16ac on GREB1 and PR promoters” value ([6]; E2, 15 and 45 min, PHF20-depleted MCF-7) was “greatly diminished”, the “H4K16ac levels on GREB1 and PR promoters” value ([6]; E2, 15 and 45 min, control MCF-7) was “dramatic increase in H4K16ac levels” and the “H4K16ac on genes not regulated by PHF20” value ([6]; E2, MCF-7) was “no apparent H4K16ac signals were detected”. The “E2-induced activation of GREB1 and PR on PHF20 depletion” value ([7]; 10 nM E2, 3 or 6 h, PHF20 knockdown MCF-7) was “drastically decreased”, the “fold induction of GREB1, PR and TFF1” value ([7]; 10 nM E2, 3 h) was roughly 4 fold and the “fold induction of GREB1, PR and TFF1” value ([7]; 10 nM E2, 6 h) was roughly 6 fold. For the same molecule, the “E2-induced gene activation on G9a depletion” value [8] was “drastically decreased”.
